Source: patent publication US7585460B2, “Method for inhibiting the biological acidification of water in contact with materials containing sulfur” (ENI S.p.A., priority 2003, dated 2009)

Tests used:
Type in all cases: cell-based, Thiobacillus
[1] = test system: Thiobacilli (consortium); assay: Effect of different salts on acidification, TM medium with sulfur powder and inoculated mixed culture (Example 7)
Protocol: The verification is aimed at discovering the effects deriving from the presence of different salts at varying concentrations on the same consortium.
A series of 12 100 ml flasks containing 50 ml of TM medium (with 0.4 g of sulfur powder), was inoculated with 1 ml of mixed culture containing 10^8 cells/ml.
• 3 control flasks containing TM and sulfur, with NaCl (0.16 M, 0.33 M, 0.56 M); • 3 flasks with TM, sulfur and Na2SO4 (0.12 M, 0.24 M, 0.56 M); • 3 flasks with TM, sulfur and KCl (0.13 M, 0.26 M, 0.56 M); • 3 flasks with TM, sulfur and KNO3 (0.09 M, 0.19 M, 0.56 M) The data collected are listed in Table 6.

[2] = test system: strains of the Thiobacilli type present in a natural environment; assay: Acidification of TM medium or rainwater with sulfur powder, no inoculation (Example 4)
Excerpt: To imitate the bacterial growth conditions in a natural environment, the same experiment as Example 1 was repeated without the inoculation of Thiobacilli.
The TM saline medium was compared with a medium consisting of rainwater sterilized at a low temperature by filtration on a membrane of cellulose nitrate (porosity 0.2 microns).
The experiment is aimed at verifying the inhibiting action of NaCl on the acidification of water rich and poor in nutrients in contact with elemental sulfur due to strains of the Thiobacilli type present in a natural environment.

[3] = test system: Thiobacilli; assay: Acidification of rainwater over submersed sulfur block wetted with Thiobacilli, outdoors (Example 8); conditions: 30 g/l NaCl
Protocol: Two blocks of elemental sulfur with an upper surface of approximately 2500 cm^2 (8.5 Kg of sulfur) are positioned in two containers. The upper surface of each block of sulfur is wetted with 250 ml of a bacterial suspension of Thiobacilli containing over 10^8 bacteria per milliliter. The two blocks are subsequently submersed with rainwater. Sodium chloride is added to one of the containers until a concentration of 30 g/l is reached.
The containers are exposed to the outside environment for three months, care being taken to regularly replace the water possibly lost by evaporation. At the end of this period, the pH of the solution in the two containers is measured.

[4] = test system: Thiobacilli (microbial consortium); assay: Comparison of NaCl and SLS, TM medium with sulfur flowers and inoculated mixed culture (Example 6); conditions: for O.D. / p.H.: B: 33 g/l of NaCl
Protocol: The experiment was aimed at comparing the action of SLS, a known bacteriostatic for Thiobacilli, and Sodium Chloride on the same microbial consortium.
A series of 6 100 ml flasks containing 50 ml of TM medium (with 0.4 g of sulfur flowers), were inoculated with 1 ml of mixed culture containing 10^8 cells/ml.
• A—2 control flasks containing TM and sulfur, without NaCl; • B—2 flasks with TM, sulfur and 33 g/l of NaCl; • C—2 flasks with TM, sulfur and 20 mg/l of SLS (concentration used in literature as bacteriostatic) The pH values and the bacterial growth were measured over a period of 34 days, by means of the increase in the absorbance.

Work on `[Cl-].[Na+]` [NaCl, Sodium Chloride] yielded a PH ([1]; salt 0.16 M, day 0) of 6.0, a PH ([1]; salt 0.16 M, day 2) of 6.0 and a PH ([1]; salt 0.16 M, day 6) of 3.5. The PH ([1]; salt 0.16 M, day 9) was 2.8, the PH ([1]; salt 0.16 M, day 12) was 2.8 and the PH ([1]; salt 0.16 M, day 15) was 2.5. The PH ([1]; salt 0.16 M, day 18) was 2.5, the PH ([1]; salt 0.16 M, day 20) was 2.5 and the PH ([1]; salt 0.16 M, day 24) was 2.0. The PH ([1]; salt 0.16 M, day 28) was 1.7, the PH ([1]; salt 0.16 M, day 30) was 1.6 and the PH ([1]; salt 0.16 M, day 40) was 1.3. For the same compound, the PH ([1]; salt 0.33 M, day 0) was 6.0, the PH ([1]; salt 0.33 M, day 2) was 6.0 and the PH ([1]; salt 0.33 M, day 6) was 5.5. It also gave a PH ([1]; salt 0.33 M, day 9) of 5.0, a PH ([1]; salt 0.33 M, day 12) of 3.0 and a PH ([1]; salt 0.33 M, day 15) of 3.0. It also gave a PH ([1]; salt 0.33 M, day 18) of 3.0, a PH ([1]; salt 0.33 M, day 20) of 2.5 and a PH ([1]; salt 0.33 M, day 24) of 2.5. The PH ([1]; salt 0.33 M, day 28) was 1.9, the PH ([1]; salt 0.33 M, day 30) was 1.7 and the PH ([1]; salt 0.33 M, day 40) was 1.4. The PH ([1]; salt 0.56 M, day 0) was 6.0, the PH ([1]; salt 0.56 M, day 2) was 6.0 and the PH ([1]; salt 0.56 M, day 6) was 6.0. The PH ([1]; salt 0.56 M, day 9) was 6.0, the PH ([1]; salt 0.56 M, day 12) was 6.0 and the PH ([1]; salt 0.56 M, day 15) was 6.0. For the same compound, the PH ([1]; salt 0.56 M, day 18) was 6.0, the PH ([1]; salt 0.56 M, day 20) was 6.0 and the PH ([1]; salt 0.56 M, day 24) was 6.0. The PH ([1]; salt 0.56 M, day 28) was 6.0, the PH ([1]; salt 0.56 M, day 30) was 6.0 and the PH ([1]; salt 0.56 M, day 40) was 5.8. It also gave a pH ([2]; Rainwater + NaCl, day 0) of 6.0, a pH ([2]; Rainwater + NaCl, day 2) of 6.0 and a pH ([2]; Rainwater + NaCl, day 4) of 6.0. It also gave a pH ([2]; Rainwater + NaCl, day 7) of 6.0, a pH ([2]; Rainwater + NaCl, day 9) of 6.0 and a pH ([2]; Rainwater + NaCl, day 11) of 6.0. The pH ([2]; Rainwater + NaCl, day 14) was 6.0, the pH ([2]; Rainwater + NaCl, day 21) was 5.8 and the pH ([2]; Rainwater + NaCl, day 23) was 5.8. It also gave a pH ([2]; TM Medium + NaCl, day 0) of 6.0, a pH ([2]; TM Medium + NaCl, day 2) of 6.0 and a pH ([2]; TM Medium + NaCl, day 4) of 6.0. The pH ([2]; TM Medium + NaCl, day 7) was 6.0, the pH ([2]; TM Medium + NaCl, day 9) was 6.0 and the pH ([2]; TM Medium + NaCl, day 11) was 6.0. The pH ([2]; TM Medium + NaCl, day 14) was 6.0, the pH ([2]; TM Medium + NaCl, day 21) was 5.8 and the pH ([2]; TM Medium + NaCl, day 23) was 5.8. The pH ([3]; day 0) was 6.0, the pH ([3]; day 10) was 5.9 and the pH ([3]; day 20) was 5.8. It also gave a pH ([3]; day 30) of 5.8, a pH ([3]; day 40) of 5.8 and a pH ([3]; day 90) of 5.8. For the same compound, the “efficacy of the treatment with respect to that with SLS” value ([4]; 33 g/l NaCl vs 20 mg/l SLS, possibly due to the different concentrations) was “greater efficacy”, the “inhibition of the acidification of water in contact with elemental sulfur” value ([4]; 33 g/l NaCl, 20 mg/l SLS) was “capable of inhibiting the acidification” and the O.D. ([4]; day 0) was 0.014. For the same compound, the p.H. ([4]; day 0) was 6.0, the O.D. ([4]; day 3) was 0.015 and the p.H. ([4]; day 3) was 6.0. For the same compound, the O.D. ([4]; day 5) was 0.017, the p.H. ([4]; day 5) was 6.0 and the O.D. ([4]; day 8) was 0.023. It also gave a p.H. ([4]; day 8) of 5.8, an O.D. ([4]; day 11) of 0.028 and a p.H. ([4]; day 11) of 5.8. It also gave an O.D. ([4]; day 16) of 0.025, a p.H. ([4]; day 16) of 5.8 and an O.D. ([4]; day 21) of 0.026. The p.H. ([4]; day 21) was 5.8, the O.D. ([4]; day 23) was 0.022 and the p.H. ([4]; day 23) was 5.8. For the same compound, the O.D. ([4]; day 28) was 0.022, the p.H. ([4]; day 28) was 5.8 and the O.D. ([4]; day 31) was 0.026. It also gave a p.H. ([4]; day 31) of 5.8.
